In ChEMBL document CHEMBL5370531, “Design, synthesis and pharmacological evaluation of 2,3-dihydrobenzofuran IRAK4 inhibitors for the treatment of diffuse large B-cell lymphoma” (Eur J Med Chem, 2023):
pIC50: −log10 of the molar value.

Experiments:
[1] = biological target: T1, Interleukin-1 receptor-associated kinase 4 (Homo sapiens, UniProt Q9NWZ3); assay: Inhibition of IRAK4 (unknown origin) by Z-LYTE enzymatic kinase assay
T1 sequence (Q9NWZ3 whole entry): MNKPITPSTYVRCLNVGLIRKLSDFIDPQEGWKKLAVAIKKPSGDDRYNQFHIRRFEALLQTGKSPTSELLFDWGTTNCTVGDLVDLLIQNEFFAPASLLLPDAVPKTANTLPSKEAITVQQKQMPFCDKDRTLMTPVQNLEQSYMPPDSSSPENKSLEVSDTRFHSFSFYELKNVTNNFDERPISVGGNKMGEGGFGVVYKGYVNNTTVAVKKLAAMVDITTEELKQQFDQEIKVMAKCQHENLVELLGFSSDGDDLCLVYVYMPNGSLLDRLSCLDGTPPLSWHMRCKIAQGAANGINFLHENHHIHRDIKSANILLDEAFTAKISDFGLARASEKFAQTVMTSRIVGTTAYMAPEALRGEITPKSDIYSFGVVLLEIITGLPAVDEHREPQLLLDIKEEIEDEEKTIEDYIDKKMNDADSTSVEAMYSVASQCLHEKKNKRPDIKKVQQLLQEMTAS

OCI-Ly10 = assay: Cytotoxicity against human OCILY10 cells assessed as inhibition of cell proliferation incubated for 72 hrs by CCK-8 assay; format: functional, cell-based; details: OCI-Ly10, 72 h
U2932 = assay: Cytotoxicity against human U2932 cells assessed as inhibition of cell proliferation incubated for 72 hrs by CCK-8 assay; format: functional, cell-based; details: U2932, 72 h
[2] = Cytotoxicity against human GM00637 cells assessed as inhibition of cell proliferation incubated for 72 hrs by CCK-8 assay; format: toxicity, cell-based

pIC50 [1] | Compound | pIC50 (OCI-Ly10) | pIC50 (U2932) | IC50 at 72 h [2]
7.66 | CC1(C)Cc2cc(NC(=O)c3coc(-c4ccncc4)n3)c(N3CCC(CO)CC3)cc2O1 |  |  | 
< 7.00 | Cc1cc(-c2nc(C(=O)Nc3cc4c(cc3N3CCC(CO)CC3)OC(C)(C)C4)co2)ccn1 |  |  | 
7.94 | CC1(C)Cc2cc(NC(=O)c3coc(-c4ccnc(N)c4)n3)c(N3CCN(CC(N)=O)CC3)cc2O1 |  |  | 
7.20 | CC(=O)Nc1cc(-c2nc(C(=O)Nc3cc4c(cc3N3CCC(CO)CC3)OC(C)(C)C4)co2)ccn1 |  |  | 
7.64 | COc1cc(-c2cc3c(cc2NC(=O)c2coc(-c4ccnc(N)c4)n2)CC(C)(C)O3)ccn1 |  |  | 
7.22 | CC1(C)Cc2cc(NC(=O)c3coc(-c4ccnc(N)c4)n3)c(N3CCC(C(C)(C)O)CC3)cc2O1 |  |  | 
8.13 | CC1(C)Cc2cc(NC(=O)c3coc(-c4ccnc(N)c4)n3)c(N3CCN(CCO)CC3)cc2O1 |  |  | 
7.60 | CC1(C)Cc2cc(NC(=O)c3coc(-c4ccnc(N)c4)n3)c(-c3ccc(C(F)(F)F)nc3)cc2O1 |  |  | 
< 7.00 | CC1(C)Cc2cc(NC(=O)c3coc(N4CCC[C@@H](N)C4)n3)c(N3CCC(CO)CC3)cc2O1 |  |  | 
< 7.00 | CC1(C)Cc2cc(NC(=O)c3cccc(N4CCC[C@@H](N)C4)n3)c(N3CCC(CO)CC3)cc2O1 |  |  | 
< 7.00 | Cc1cc(-c2cc3c(cc2NC(=O)c2coc(-c4ccnc(N)c4)n2)CC(C)(C)O3)cc(C)n1 |  |  | 
7.18 | CC1(C)Cc2cc(NC(=O)c3coc(N4CC[C@@H](N)C4)n3)c(N3CCC(CO)CC3)cc2O1 |  |  | 
< 7.00 | CC1(C)Cc2cc(NC(=O)c3cccc(-c4ccc(N)nc4)n3)c(N3CCC(CO)CC3)cc2O1 |  |  | 
7.38 | CC1(C)Cc2cc(NC(=O)c3coc(-c4ccnc(N)c4)n3)c(-c3ccc(C#N)nc3)cc2O1 |  |  | 
< 7.00 | Cc1noc(C)c1-c1cc2c(cc1NC(=O)c1coc(-c3ccnc(N)c3)n1)CC(C)(C)O2 |  |  | 
7.55 | CC1(C)Cc2cc(NC(=O)c3coc(-c4ccnc(N)c4)n3)c(N3CCC(C(N)=O)CC3)cc2O1 |  |  | 
7.49 | CC1(C)Cc2cc(NC(=O)c3coc(-c4ccnc(N)c4)n3)c(N3CCC(O)CC3)cc2O1 |  |  | 
8.21 | CC1(C)Cc2cc(NC(=O)c3cnn4cccnc34)c(N3CCOCC3)cc2O1 |  |  | 
7.73 | CCn1cc(-c2cc3c(cc2NC(=O)c2coc(-c4ccnc(N)c4)n2)CC(C)(C)O3)cn1 |  |  | 
7.52 | Cc1cc(-c2cc3c(cc2NC(=O)c2coc(-c4ccnc(N)c4)n2)CC(C)(C)O3)ccn1 |  |  | 
7.13 | Cn1cc(-c2cccc(C(=O)Nc3cc4c(cc3N3CCC(CO)CC3)OC(C)(C)C4)n2)cn1 |  |  | 
7.57 | COc1ccc(-c2cc3c(cc2NC(=O)c2coc(-c4ccnc(N)c4)n2)CC(C)(C)O3)cn1 |  |  | 
7.61 | CC(C)n1cc(-c2cc3c(cc2NC(=O)c2coc(-c4ccnc(N)c4)n2)CC(C)(C)O3)cn1 |  |  | 
7.85 | CC1(C)Cc2cc(NC(=O)c3coc(-c4ccnc(N)c4)n3)c(N3CCC(CN)CC3)cc2O1 |  |  | 
< 7.00 | CC1(C)Cc2cc(NC(=O)c3cccc(N4CC[C@@H](N)C4)n3)c(N3CCC(CO)CC3)cc2O1 |  |  | 
< 7.00 | CC1(C)Cc2cc(NC(=O)c3cccc(-c4ccnc(N)c4)n3)c(N3CCC(CO)CC3)cc2O1 |  |  | 
< 7.00 | CC1(C)Cc2cc(NC(=O)c3coc(-c4ccnc(N)c4)n3)c(-c3ccnc(C#N)c3)cc2O1 |  |  | 
< 7.00 | CC1(C)Cc2cc(NC(=O)c3coc(-c4ccnc(N)c4)n3)c(-c3ccnc(C(F)(F)F)c3)cc2O1 |  |  | 

Compound | pIC50 [1] | pIC50 (OCI-Ly10) | pIC50 (U2932) | IC50 at 72 h [2]
CC1(C)Cc2cc(NC(=O)c3cnn4cccnc34)c(N3CCC(CO)CC3)cc2O1 | 8.54 | 4.91 |  | 
CC1(C)Cc2cc(NC(=O)c3coc(-c4ccnc(N)c4)n3)c(-c3ccoc3)cc2O1 | 7.99 | 6.40 | 5.61 | > 50 µM
CC1(C)Cc2cc(NC(=O)c3coc(-c4ccnc(N)c4)n3)c(N3CCC(CO)CC3)cc2O1 | 8.68 | 6.47 |  | 
CC1(C)Cc2cc(NC(=O)c3coc(-c4ccnc(N)c4)n3)c(N3CCOCC3)cc2O1 | 8.59 | 6.96 | 6.74 | 0.312 µM
Cc1ncc(-c2cc3c(cc2NC(=O)c2coc(-c4ccnc(N)c4)n2)CC(C)(C)O3)cn1 | 7.85 | 6.08 | 5.29 | > 50 µM
CC1(C)Cc2cc(NC(=O)c3coc(-c4ccnc(N)c4)n3)c(-c3cncnc3)cc2O1 | 7.90 | 6.17 | 5.68 | 4.63 µM
Cc1ccc(-c2cc3c(cc2NC(=O)c2coc(-c4ccnc(N)c4)n2)CC(C)(C)O3)cn1 | 7.89 | 5.50 | < 4.30 | > 50 µM
